# Assay results as given in patent publication US10525056B2, “Procaspase-activating compounds and methods” (The Board of Trustees of the University of Illinois, priority 2011, dated 2020).
# Like-named read-outs stand apart in the source and are kept apart here.
# Key:
# [1] = system: U-937 cells; assay: Induction of apoptosis by hit compounds (Annexin V-FITC/propidium iodide flow cytometry); type: cell-based; details: Homo sapiens, 7.5 μM compound, 24 hours
# Protocol: U-937 Cells (1 mL of 6×10^5 cells/mL) were treated with 10 μL of 750 μM DMSO solutions of the compounds to achieve a final concentration of 7.5 μM. […] The cells were harvested via centrifugation (200 g for 5 minutes), washed with PBS (2 mL), and resuspended in 450 μL Annexin V Binding Buffer. To each sample was added 3.5 μL of FITC conjugated Annexin V stain (Southern Biotech) and 3.5 μL of propidium iodide (Sigma) to a final concentration of 50 μg/mL. Cell populations were analyzed on a Benton Dickinson LSR II cell flow cytometer.
# [2] = system: U-937 human lymphoma cells; assay: 72 Hour IC50 Cell Death Assay (sulforhodamine B); type: cell-based; details: read-out: 72-hour IC50 (μM), U-937 cells, 72 h treatment, average ± SEM of three experiments
# Protocol: U-937 human lymphoma cells were plated into the wells of 96 well plate at a density of 15,000 cells per well in 99 μL of RPMI 1640 growth media with 10% FBS and 1% pen-strep. To each well was added 1 μL of compound stock solutions in DMSO at varying concentrations such that the cells were treated with concentrations between 0 μM and 100 μM compound. Each concentration was tested in quintuplicate per plate. In each plate 5 wells received 20 μM doxorubicin as a positive death control and 5 wells received […] as a negative control.
# After the 72 hour incubation period, the plates were analyzed using a Sulforhodamine B assay (Vichai and Kirtikara, Nat Protoc 2006, 1, 1112-1116). Specifically, to each well of the plate 25 μL of a 50% (w/v) solution of trichloroacetic acid in H2O was added and the plates were incubated for 4 hours at 4° C. The plates were then washed gently with water five times. The plates were allowed to air dry after which 100 μL of a 0.057% (w/v) Sulforhodamine B in a 1% (v/v) acetic acid solution was added to each well for 30 minutes at room temperature. The plates were gently washed 5 times with 1% (v/v) acetic acid and air dried. 200 μL of 10 mM Tris base (pH 10.4) was added to each well and the plates were placed on an orbital shaker for thirty minutes. The level of SRB was quantified fluorometrically at excitation and emission wavelengths 488 and 585 nm, respectively, on a Molecular Devices plate reader and the percent cell death calculated and normalized to the positive control (100% cell death) and the negative control (0% cell death). The percent cell death was averaged for each compound concentration and plotted as a function of compound concentration. The data were fit to a logistical dose response curve using Table curve 2D and the IC50 value was calculated. The experiment was repeated three times and the average of the calculated IC50 values was reported. The standard error of the mean (SEM) was determined and reported for the triplicate experiments.
# [3] = research dogs, for 48 hours; cited from earlier work
# [4] = system: U-937 human lymphoma cells; assay: Cell death assay for initial screen (Annexin V-FITC/propidium iodide flow cytometry); type: cell-based; details: U-937 cells, 20 μM compound, 24 hours
# Protocol: Apoptotic cell death was assessed by flow cytometry, using Annexin V-FITC/propidium iodide staining.
# Compound (2 μL of a 10 mM DMSO solution) was added in singlet by direct addition to a well containing 998 μL U-937 cells (1×10^6) in RPMI 1640 media (10% FBS) at a final compound concentration of 20 μM. […] The cells were double stained with FITC-Annexin V and propidium iodide and a cell population of at least 10,000 events was collected by the LSR II flow cytometer. Percent viable cells (Annexin V—negative, propidium iodide—negative) were determined using FCS Express software.
# [5] = mice, for 48 hours; cited from earlier work
Structure (SMILES),cytotoxicity at 7.5 µM [1],IC50 [2],serum concentration at doses that can be safely administered [3],% cell death [4],serum concentration at doses that can be safely administered [5]
"COc1ccc(CN2CCN(CC(=O)N/N=C/c3cc(C(C)(C)C)cc(C(C)(C)C)c3O)CC2)cc1 [3{2,7}, N′-(3,5-di-tert-butyl-2-hydroxybenzylidene)-2-(4-(4-methoxybenzyl)piperazin-1-yl)acetohydrazide]",90%,1.8 ± 0.2 µM,,,
"COc1ccc(OC)c(CN2CCN(CC(=O)N/N=C/c3cc(C(C)(C)C)cc(C(C)(C)C)c3O)CC2)c1 [3{4,7}, N′-(3,5-di-tert-butyl-2-hydroxybenzylidene)-2-(4-(2,5-dimethoxybenzyl)piperazin-1-yl)acetohydrazide]",53%,1.6 ± 0.2 µM,,,
"CC(C)(C)c1cc(/C=N/NC(=O)CN2CCN(Cc3ccc(OCc4ccccc4)cc3)CC2)c(O)c(C(C)(C)C)c1 [3{18,7}, 2-(4-(4-(benzyloxy)benzyl)piperazin-1-yl)-N′-(3,5-di-tert-butyl-2-hydroxybenzylidene)acetohydrazide]",97%,1.4 ± 0.2 µM,,,
"C=CCc1cccc(/C=N/NC(=O)CN2CCN(Cc3ccc(C(C)(C)C)cc3)CC2)c1O [3{20,24}, N′-(3-allyl-2-hydroxybenzylidene)-2-(4-(4-(tert-butyl)benzyl)piperazin-1-yl)acetohydrazide]",83%,0.9 ± 0.03 µM,,,
"CC(C)(C)c1cc(/C=N/NC(=O)CN2CCN(Cc3ccc4ccccc4c3)CC2)c(O)c(C(C)(C)C)c1 [3{25,7}, N′-(3,5-di-tert-butyl-2-hydroxybenzylidene)-2-(4-(naphthalen-2-ylmethyl)piperazin-1-yl)acetohydrazide]",50%,1 ± 0.04 µM,,,
"CCc1ccc(CN2CCN(CC(=O)N/N=C/c3cc(C(C)(C)C)cc(C(C)(C)C)c3O)CC2)cc1 [3{28,7}, N′-(3,5-di-tert-butyl-2-hydroxybenzylidene)-2-(4-(4-ethylbenzyl)piperazin-1-yl)acetohydrazide]",70%,2 ± 0.2 µM,,,
C=CCc1cccc(/C=N/NC(=O)CN2CCN(Cc3ccccc3)CC2)c1O [PAC-1],21%,3.8 ± 0.4 µM,~10 µM,~50%,~10 µM
